The series is described as follows: Pharmacokinetic analysis in beagles after oral administration. It counts as in vivo, beagle. Particulars: for Cmax / AUC(0-inf) / AUC(0-t) / half-life / Tmax: beagle, dog, plasma, mean; for Cmax: po, read-out: Cmax (average highest plasma concentration); for Tmax: read-out: tmax (time of highest plasma concentration). On the procedure: For this purpose, 5-hydroxy-1-methylimidazolidine-2,4-dione was weighed, based on the fasting weight measured on the day of administration, using an electronic scale in accordance with the oral doses of 10, 50, 100, and 200 mg/kg for each experimental group, and was added to a 500 ml glass container, DW (distilled water) was added as an excipient, and the drug was dissolved therein through vortexing and stirring. Then, the beagles used in the subsequent experiments were acclimatized and environmentally adapted for about a week before the test, and then the compound was orally administered to each beagle at the doses listed in the table below. In addition, the beagles used in this experiment were bred and kept at the Endik Institute.
The compound was administered orally, blood was collected in a volume of 3 ml using a syringe from the jugular vein of the experimental beagle at each time (0 (before administration), 0.25, 0.5, 1, 1.5, 2, 4, 8, 12, and 24 hours), the collected blood was centrifuged at 4,000 rpm/10 minutes at 4° C. and dispensed into 500 μl of a set of two separate 1.5 ml tubes, and the remaining plasma was dispensed into another set and immediately stored in a deep freezer at −70° C. until analysis. The concentration of 5-hydroxy-1-methylimidazolidine-2,4-dione in the collected plasma was measured using the following method.
First, a standard sample solution for preparing a calibration curve was prepared. 1.2 mg of standard 5-hydroxy-1-methylimidazolidine-2,4-dione was dissolved in 0.12 ml of DMSO to prepare a stock solution having a final concentration of 10 mg/ml. Then, the stock solution was diluted to a final concentration of 500, 1,000, 2,000, 5,000, 10,000, 30,000, 100,000, 300,000, and 1,000,000 ng/ml with 70% acetonitrile as a solvent. Then, for an internal standard sample solution, 5.0 mg of 4-methylumbelliferone was dissolved in acetonitrile to prepare a final stock solution of 5 mg/ml, which was then diluted with acetonitrile to obtain a final concentration of 200 ng/ml.
To prepare a calibration curve using each solution prepared above, standard 5-hydroxy-1-methylimidazolidine-2,4-dione was dissolved in DMSO to prepare a 10 mg/ml standard stock solution and then the standard stock solution was frozen at −20° C., and the prepared standard stock solution was diluted with 70% acetonitrile to prepare a working solution. The working solution was diluted with blank plasma stored frozen below −20° C. (working standard solution 10%, blank plasma 90%) to prepare standard plasma to adjust the concentration of analyte in plasma to […]. 20 μl of each standard plasma was placed in a 1.5 ml micro-tube and then 180 μl of internal standard solution (200 ng/ml in ACN) was added thereto. After vortexing for 5 minutes, centrifugation was performed at 4° C. and 17,600×g for 5 minutes. 150 μl of the supernatant was transferred to a 300 μl screw vial, 5 μl of the supernatant was injected into the HPLCMS/MS system, and a calibration curve was plotted at the ratio of the peak area of the analyte to the obtained peak area of the internal standard.
Then, the plasma sample collected from the beagle was subjected to the following pretreatment for assay. 180 μl of the internal standard solution was added to 20 μl of the plasma sample to induce protein precipitation. Then, the mixed sample was suspended using a vortex mixer for 5 minutes, centrifuged at 17,600×g for 5 minutes, and 150 μl of the supernatant was transferred to an analysis container. Then, 5 μl of the supernatant was injected into a HPLC/MS/MS system and analysis was performed. The instruments used for analysis were an HPLC system (Agilent 1100 Series with on-line degasser, binary pump, thermostatted well-plate autosampler and column compartment) and an MS/MS system (SCIEX 4000 QTRAP System). […]

The mark [1] stands for this setting: oral G3 (100 ng/kg [sic]; text 100 mg/kg).

Where two headings read alike, the source gives them in different places.

By AUC(0-inf) is commonly meant total exposure, with the tail of the curve extrapolated. Broadly, the AUC(0-t) is exposure summed from dosing to a finite time, without extrapolation to infinity. The term half-life denotes the time in which the quantity being followed falls by half. A higher half-life goes with slow decline. With `CN1C(=O)NC(=O)C1O` (centres unmarked) [KBP-001, 5-hydroxy-1-methylimidazolidine-2,4-dione], the Cmax reads like this: (10 mg/kg, oral 10 mg/kg (G1)) 15 µg/mL; (100 mg/kg, oral G3 (100 ng/kg [sic]; text 100 mg/kg)) 102 µg/mL; (200 mg/kg, oral 200 mg/kg (G4)) 233 µg/mL. For the same molecule, the AUC(0-inf) is, setting by setting: (oral 10 mg/kg (G1)) 66.2 µg·h/mL; (oral 50 mg/kg (G2)) 289 µg·h/mL; (oral 200 mg/kg (G4)) 1120 µg·h/mL; under setting [1], 468 µg·h/mL. Also, the AUC(0-t) runs as follows: (oral 10 mg/kg (G1)) 65.4 µg·h/mL; (oral 50 mg/kg (G2)) 288 µg·h/mL; (oral 200 mg/kg (G4)) 1110 µg·h/mL; under setting [1], 466 µg·h/mL. Besides, the half-life runs as follows: (oral 10 mg/kg (G1)) 2.89 h; (oral 50 mg/kg (G2)) 2.8 h; (oral 200 mg/kg (G4)) 2.9 h; under setting [1], 2.97 h. Further, the Tmax is, setting by setting: (oral 10 mg/kg (G1)) 0.6 h; (oral 50 mg/kg (G2)) 0.35 h; (oral 200 mg/kg (G4)) 0.45 h; under setting [1], 0.8 h. The adverse reactions entry (single oral 10, 50, 100, 200 mg/kg, until end of PK test) is “no adverse reactions were observed”.

The record behind these values is patent US20240299359A1, “PHARMACEUTICAL COMPOSITION FOR ANIMALS CONTAINING 5-HYDROXY-METHYLIMIDAZOLIDINE-2,4-DIONE COMPOUND AS ACTIVE INGREDIENT” (KYONGBO PHARM. CO., LTD., priority 2021, published 2024).
